# Measurements from a melting point compilation (Tetko et al.).
row,melting point [°C],SMILES
1,189 to 191,Cc1cc(F)ccc1-c1ccc(C(=O)O)cc1F
2,161 to 163,CC(C)(C)n1cnnc1SCC(=O)O
3,314 to 316,O=C(O)c1ccnc(-n2cncn2)c1
4,149 to 151,COC(=O)c1cccc(C(=O)O)n1
5,162 to 164,CC1=NS(=O)(=O)NC(C)=C1CCC(=O)O
6,69 to 71,CCOc1ccc(N)c(C(F)(F)F)c1
7,143 to 145,N#Cc1ccccc1SCC(=O)O
8,96 to 98,Nc1cc(C(F)(F)F)c[nH]c1=O
9,142 to 144,O=C1CCCc2nc(-c3ccc(F)cc3)sc21
10,87 to 89,COc1ccccc1-c1nnc(S)n1CCc1ccccc1
11,140 to 142,O=C(O)CCCC(=O)c1ccc(Cl)c(Cl)c1
12,225 to 227,O=C1COc2cc([N+](=O)[O-])ccc2N1
13,124 to 126,CCCCCCn1nc(C(=O)O)c2ccccc2c1=O
14,65 to 67,NCC1(O)CCSCC1
15,149 to 151,Cc1ccc(S(=O)(=O)N2CCCCC2C)cc1C(=O)O (stereo not drawn)
16,269 to 271,COc1ccc(-c2n[nH]c(=O)c3ccccc23)cc1F
17,139 to 141,Cc1cc(Br)cc2cc(C#N)oc12
18,148 to 150,O=C(O)c1cc(S(=O)(=O)Cl)c(F)cc1Br
19,66 to 68,COc1ccccc1C(C)N(C)C(=O)CCl (stereo not drawn)
20,56 to 58,Cc1cc(C)cc(Oc2ccc(CN)cc2C)c1
21,138 to 140,Nc1ccc(Br)cc1O
22,178 to 180,O=c1cc(CCl)c2cc(O)c(O)cc2o1
23,141 to 143,O=C1COc2c1ccc(Cl)c2Cl
24,109 to 111,Cc1cn2cc(Br)cc(C)c2n1
25,81 to 83,CC(Cl)C(=O)N1CCSc2ccccc21 (stereo not drawn)

row,melting point [°C],SMILES
1,73 to 75,O=Cc1ccc(-c2cccs2)cc1F
2,198 to 200,Nc1nc(Cl)nnc1Cl
3,209 to 211,CN1C(=O)CCc2cc(C(=O)O)ccc21
4,139 to 141,COCc1nnc(-c2cccc(C(=O)O)c2)o1
5,159 to 161,CCOC(=O)c1ccn[nH]1
6,247 to 249,CN1C(=O)c2ccc(N)cc2C1=O
7,239 to 241,COC(=O)c1cc(Cl)c(=O)[nH]c1C
8,150 to 152,O=C(O)C1(c2cccc(Cl)c2)CCCC1
9,105 to 106,Cc1cccc(NC(=O)CCN)n1
10,248 to 250,O=C(O)c1cc([N+](=O)[O-])cc2c1OCCO2
11,68 to 70,O=Cc1ccc(N2CCOCC2)c(F)c1
12,139 to 141,O=C(O)CS(=O)(=O)c1cccc(Br)c1
13,154 to 156,COc1ccc(C=C(CC(=O)O)c2nc3ccccc3s2)cc1
14,153 to 155,NC(=O)c1cc(N)ccc1Cl
15,216 to 218,O=C(O)C1(c2c(Cl)cccc2Cl)CC1
16,289 to 291,O=C1CCCc2[nH]c(=O)c(C(=O)O)cc21
17,169 to 171,COc1ccccc1S(N)(=O)=O
18,177 to 179,Nc1ccccc1-c1nc(-c2ccccc2)n[nH]1
19,94 to 96,Nc1ccc(SCc2ccccc2)cn1
20,52 to 54,CN(C)C=CC(=O)C(F)(F)F
21,83 to 87,COc1cc(/C=C/C(=O)O)ccc1OC(C)C
22,113 to 115,O=C(Cc1nc2ccccc2s1)c1ccccc1
23,235 to 237,Cc1nc2ccccc2n1CCN
24,161 to 163,Oc1nc(-c2ccccc2Cl)no1
25,219 to 221,O=C(O)c1cc(F)cc2nccnc12

row,melting point [°C],SMILES
1,94 to 96,CC1(C)Cc2ccc(Cl)cc2C1O (stereo not drawn)
2,164 to 166,CC(=O)N(C)c1nc(C=O)cs1
3,195 to 197,CCOC(=O)c1cc(C#N)c(SCC(=O)O)[nH]c1=O
4,103 to 105,CNC(=O)NN
5,111 to 113,O=C1CCSc2c(F)ccc(F)c21
6,184 to 186,Cn1cnc(-c2cccc(N)c2)n1
7,172 to 174,Cn1cc([N+](=O)[O-])ccc1=O
8,49 to 51,CNS(N)(=O)=O
9,217 to 221,Nc1cc(Br)cc(C(=O)O)c1
10,222 to 224,Cc1n[nH]c(C(N)=O)n1
11,60 to 62,O=C(c1cc(Cl)ccn1)N1CCCCC1
12,256 to 258,O=C1c2ccccc2C(=O)N1CCc1nn[nH]n1
13,92 to 94,Fc1ccc(NC(=NC2CC2)c2ccccc2)cc1
14,161 to 163,CC(Cl)c1nnc(-c2ccc([N+](=O)[O-])cc2)o1 (stereo not drawn)
15,149 to 151,COC(=O)c1cc(C(=O)OC)[nH]n1
16,248 to 250,Nc1nc(-c2ccc3c(c2)CCC(=O)N3)cs1
17,121 to 123,COc1ccc(C(=O)c2ccc(Cl)cc2)cc1C
18,261 to 263,O=C(O)c1[nH]nc2cc(OC(F)(F)F)ccc12
19,80 to 82,COc1ccc(CCNC(=O)c2ccccc2N)cc1
20,210 to 212,Cn1c(=O)c(Br)c(N)n(Cc2ccccc2)c1=O
21,80 to 82,COCCOc1ccc(C(F)(F)F)cc1NC(=O)CCl
22,129 to 131,CC(C)(C(=O)O)c1ccc([N+](=O)[O-])cc1
23,263 to 265,O=C(O)c1ccc(/C=C/c2ccc3ccccc3n2)cc1
24,204 to 206,CC(=O)Nc1ccc(C(=O)O)nc1
25,144 to 146,Nc1cc(Cl)ccc1N1CCC(CO)CC1

row,melting point [°C],SMILES
1,186 to 188,Clc1nc(-c2ccccn2)nc2sc(-c3ccccc3)cc12
2,228 to 230,COC(=O)c1ccc2nc(N)oc2c1
3,183 to 185,CCc1cc2c(=O)[nH]cnc2s1
4,307 to 309,O=C(O)c1cnc(-c2ccncc2)s1
5,219 to 221,Nc1c(C(=O)O)cc(F)cc1[N+](=O)[O-]
6,104 to 106,COc1cc(NC(=O)CCl)cc(OC)c1OC
7,180 to 182,Cn1c(S)nnc1C1CC1
8,151 to 153,O=C1CCCS(=O)(=O)c2ccccc21
9,128 to 130,CCN(c1ccccc1)S(=O)(=O)c1ccc(Cl)c(C(=O)O)c1
10,146 to 148,Sc1nccn1Cc1ccccc1
11,87 to 89,COc1cccc(NCCC(=O)O)c1
12,154 to 156,O=C(O)CNc1ccc(Br)cc1
13,121 to 123,FC(F)Oc1ccc(-c2nnc(S)o2)cc1
14,146 to 148,Cc1nnc(N2CCCC2)c(C#N)c1C
15,223 to 225,CC1CCC2(CC1)NC(=O)N(CC(=O)O)C2=O (stereo not drawn)
16,119 to 121,CS(=O)(=O)Nc1cccc(I)c1
17,322 to 324,Cn1c(=O)[nH]c(=O)c2[nH]c(CCC(=O)O)nc21
18,144 to 146,Cc1c(Cl)cccc1-n1ccnc1SCC(=O)O
19,268 to 270,O=C1COc2ccncc2N1
20,140 to 142,COc1ccc(N)cc1NC(=O)c1ccc(Cl)cc1F
21,106 to 108,CC(Cl)C(=O)NCCc1ccc2c(c1)OCCO2 (stereo not drawn)
22,38 to 42,ClCC12CC3CC(CC(C3)C1)C2
23,186 to 188,O=C(O)c1ccc(N2CCOCC2)c([N+](=O)[O-])c1
24,141 to 143,CC(Cl)C(=O)N1N=C(c2ccc(Cl)cc2)CC1c1ccco1 (stereo not drawn)
25,92 to 96,Nc1ccc(Cl)c(S(=O)(=O)N2CCCCC2)c1

row,SMILES,melting point [°C]
1,Cc1cc(C(=O)O)c(C)n1C(C)c1ccccc1 (stereo not drawn),135 to 137
2,O=C1CN(C(=O)CCl)CCN1,124 to 126
3,CCCNc1ccc(CN2CCN(C)CC2)cn1,69 to 71
